Data: US8354265B2, “Chemicals promoting the growth of N-acylhomoserine lactone-degrading bacteria” (Centre National de la Recherche Scientifique, priority 2007, dated 2013)
“Also recorded” adds a separate entry of the source.

Experiments:
[1] = system: bacteria recovered from the consortia; experiment: NAHL production and inactivation by isolates recovered from the consortia, with rrs identification; format: cell-based; details: for NAHL-producing bacteria among isolates of the consortia: 280 isolates from 280 independent enrichments
[2] = system: NAHL-degrading bacteria in the nutritive solution; experiment: Ratio of NAHL-degrading bacteria in unplanted batches of nutritive solution; format: cell-based; details: for percentage of NAHL-degrading bacteria in the nutritive solution: without plants
Experimental: (§1) The non sterile batches (40×60×8 cm) contained 13 L of the nutritive solution Hydrobloom (Cellmax, UK) with Nitrogen at 0.80 g/L, Phosphore at 0.56 g/L and Potassium at 1.48 g/L as major components. The solution was diluted from a concentrated stock solution (×250) with non sterile water from the public water system. One hundred plants of Solanum tuberosum var. Allians, which were recovered from cultures performed under sterile conditions, were placed into holes (3 cm space to each other) of batch covers. Planted batches were placed in the greenhouse (Comité Nord Plants de Pomme de Terre, Bretteville-du-Grand-Caux) under natural light at 10-15° C. (night) and 25-30° C. (day). […] An untreated batch was used as a control. One gram of roots (fresh weight) was resuspended in 10 mL of sterile MgSO4 10 mM, diluted and spread on TSA and King B plates to isolate total cultivable bacteria and fluorescent Pseudomonas, respectively. Three samples were analyzed from each batch at each time D0, D14 and D28; from each sample, thirty isolates from TSA plates and thirty fluorescent isolates from King B plates were individually tested from production and inactivation of NAHL signal.
(§2) Bacterial isolates grown in 96-microwell plates were individually tested from production of NAHL with the A. tumefaciens biosensor NT1 (pZNLR4) and the inactivation of the C6-HSL signal, as described previously (d'Angelo-Picard et al. 2004).
Allians was evaluated. The plants were cultivated in vitro under sterile conditions, then placed into batches in a greenhouse at Bretteville-du-Grand-Caux (France) in a non-sterile environment. Especially, a non-sterile nutritive solution was used and served as a source of naturally occurring bacteria. […] The ratio of NAHL-degrading bacteria in the nutritive solution was evaluated before the treatment and 14-day later. This percentage increased from 10±2 to 30±2 in the case of the 6CL-treated batch and from 10±2 to 70±2 in the GCL-treated batch. From the 6CL- and GCL-treated batches, 10 NAHL-degrading bacteria were identified by their rrs sequence: 9 belonged to the Delftia genus, the other one to the Rhodococcus genus.

[3] = system: NAHL-degrading and NAHL-producing bacteria of potato rhizosphere; experiment: Two independent analyses of 6CL and GCL treatments on planted batches (FIG. 7); format: in vivo, Solanum tuberosum var. Allians
From the text: FIG. 7: Percentage of NAHL-degrading and NAHL-producing strains in potato rhizosphere. […] An untreated batch was used as a control in the two independent sets of experiments. The mean of three replicates is shown. Statistically different values (Student t test; 0.05) are noted by different letters.
as §1, §2
An untreated batch was used as a control.

[4] = system: NAHL-degrading rhizobacteria of potato rhizosphere; experiment: Preliminary experiment in planted hydroponic batches: level and diversity of NAHL-degrading rhizobacteria (Table 1); format: in vivo, Solanum tuberosum var. Allians
Experimental: as §1, §2
At least 400 bp were submitted to the NCBI database.

[5] = system: bacterial consortia originating from rhizospheric soil; experiment: C6-HSL inactivation by bacterial consortia enriched from rhizospheric soil; format: cell-based
bacterial consortia = experiment: Inactivation of C6-HSL and OC8-HSL by mannitol, 6CL, GCL and HTN consortia; format: cell-based
From the text: (§3) The Mannitol-, 6CL-, GCL-, and HTN-consortia were compared for their capacity to inactivated OC8-HSL, the major NAHL produced by the plant pathogen Erwinia carotovora subsp. atroseptica 6276, as well as for their biocontrol activity against this pathogen in potato maceration assay.

young plants = details: in vivo
[6] = system: NAHL-degrading rhizobacteria; experiment: Diversity of NAHL-degrading rhizobacteria after 6CL and GCL treatments, rrs sequencing (Table 2); format: in vivo, Solanum tuberosum; details: D14 and D28; 0.1 mL/L
Experimental: as §1
(§4) The 5′-end of the rrs gene was amplified with primers pA (5′-[…]) (SEQ ID NO:1) and 518r (5′-[…]) (SEQ ID NO:2), and sequenced with pA primer by GenomeExpress (Meylan, France). At least 400 bp were submitted to the NCBI database. Although some sequence comparisons authorized identification of isolates at the species level, only the genus level was retained in this study for homogeneity.
The isolates were identified by rrs-sequencing (Table 2). At D0, most of the NAHL-degrading isolates were identified as Delftia. However, at D14 and D28, the Agrobacterium isolates dominated in untreated batches, while they were not detected in the treated batches. In those, the more frequently counted bacteria were Delftia and Rhodococcus.

[7] = system: Erwinia carotovora subsp. atroseptica 6276; experiment: Maceration assay on potato tubers (biocontrol activity of consortia); format: in vivo; details: potato tubers infected with mix of Erwinia carotovora 6276 and consortia
From the text: FIG. 6: Maceration assay on potato tubers.
as §3

[8] = system: bacterial consortia from unplanted soil; experiment: C6-HSL inactivation by bacterial consortia enriched from unplanted soil on the compound as sole carbon source; format: cell-based; details: soil and rhizospheric samples; among 25 assayed molecules
soil bacterial consortia = experiment: NAHL (C6-HSL, OC8-HSL) inactivation by soil consortia enriched on second set of compounds; format: cell-based; details: C6-HSL 25 μM or OC8-HSL 200 nM
Experimental: FIG. 4: Kinetics of NAHL inactivation by bacterial consortia. (A) NAHL is C6-HSL with an initial concentration of 25 μM (B) NAHL is 3-oxo-octanoylhomoserine lactone (OC8-HSL), with an initial concentration of 200 nM. The different bacterial consortia obtained after enrichment on the indicated compounds as a sole carbon source (mannitol is abbreviated as Man) were tested to for their capacity to inactivate NAHL signal. At each time (0, 1, 3 and 5 hrs), the uninoculated control (C) was used to estimate the percentage of residual NAHL.
Non sterile soil from the CNRS experimental field (Mérantaise) at Gif-sur-Yvette (France) was mixed with sterile sand Loire River and distributed into pots (20 cm in diameter). Some of them were sown with disinfected seeds of Nicotiana tabacum cv. Samson. Pots were randomly placed in the greenhouse (CNRS, Gif-sur-Yvette), under a long day conditions (16 h) at 17° C. (night) and 24° C. (day), and watered daily with tap water. One gram of unplanted or rhizospheric (3-months aged plants) soil was resuspended in 10 mL of sterile 0.8% NaCl. […] After a 3-days incubation at 25° C. under shaking (180 rpm), the cell cultures were diluted (1/50) into fresh AB media for an additional 2-days enrichment step. […]

[9] = system: NAHL-degrading rhizobacteria; experiment: Diversity of NAHL-degrading rhizobacteria after HTN treatments, rrs sequencing (Table 3); format: in vivo, Solanum tuberosum
From the text: as §4
To analyze the impact of HTN on the diversity of NAHL-degrading strains, 50 NAHL-degrading strains were sampled from the third set of experiments, at the beginning of the experiments (D0) and after 14 and 42 days. The isolates were identified by rrs-sequencing (Table 3). At D0, all of the 5 NAHL-degrading isolates analyzed were identified as Agrobacterium. However, at D14 and D42, the Rhodococcus isolates dominated in treated batches, in which Delftia and Sinorhizobium were also detected

[10] = system: NAHL-degrading bacteria of potato rhizosphere; experiment: HTN treatment on planted batches (FIG. 9); format: in vivo, Solanum tuberosum
From the text: FIG. 9: Percentage of NAHL-degrading and NAHL-producing strains in potato rhizosphere after treatment with HTN. The percentage of NAHL degraders and NAHL producers was estimated among cultivable bacteria (cfu/g of fresh weight of roots), which were recovered from potato rhizospheres before the treatment (D0; white columns), 14 days (D14; dark grey columns), 28 days (D28; black columns) after the first treatment and 42 days after the first treatment, i.e., 14 days after the second treatment (D42; grey columns). The letters indicate statistically different values (Student's t-test; 0.05).
The non sterile batches (40×60×8 cm) contained 13 L of the nutritive solution Hydrobloom (Cellmax, UK) with Nitrogen at 0.80 g/L, Phosphore at 0.56 g/L and Potassium at 1.48 g/L as major components. The solution was diluted from a concentrated stock solution (×250) with non sterile water from the public water system. One hundred plants of Solanum tuberosum var. Allians, which were recovered from cultures performed under sterile conditions, were placed into holes (3 cm space to each other) of batch covers. […] Three samples were analyzed from each batch at each time D0, D14 and D28; from each sample, thirty isolates from TSA plates and thirty fluorescent isolates from King B plates were individually tested from production and inactivation of NAHL signal. […]

[11] = 6CL- and GCL-treated batches together, rrs sequence

## O=C1CCCCCO1 [6CL, 6-caprolactone, reference compound]
[1]
  NAHL-inactivating bacteria recovered from consortia: recovered
  NAHL-producing bacteria among isolates of the consortia: none
[1]; 6CL and GCL consortia together
  NAHL-degrading isolates related to Chryseobacterium: 10%
  NAHL-degrading isolates related to Delftia: 80 % of the identified strains
  NAHL-degrading isolates related to Ralstonia: 3%
  NAHL-degrading isolates related to Rhodococcus: 7%
[2]; [11]
  NAHL-degrading bacteria belonging to the Delftia genus (of 10 identified): 9
  NAHL-degrading bacteria belonging to the Rhodococcus genus (of 10 identified): one
[2]; 14-day after treatment at 1 mL/L
  percentage of NAHL-degrading bacteria in the nutritive solution: 30±2%
[2]; before the treatment
  percentage of NAHL-degrading bacteria in the nutritive solution: 10±2%
[3]; 0.1 mL/L
  specific effect on the NAHL-degrading bacteria of the rhizosphere: no specific effect
[3]; 0.1 mL/L, during all experiments
  proportion of NAHL-degrading bacteria: remained at a quite similar level
[3]; 6CL 0.1 mL/L, GCL 0.1 and 0.4 mL/L, D14 and D28
  modification of the ratio of NAHL-producing bacteria: no repeatable modification
[4]; 0.1 mL/L, 28 days after amendment, planted batches
  increase of the ratio of NAHL-degrading bacteria: not
[4]; D0 (before treatment)
  Log CFU/gram of root (fresh weight): 8.0 ± 7.6 Log CFU/gram of root (fresh we
  NAHL degraders (%): 8.9 ± 1.5 %
  NAHL producers (%): 7.8 ± 1.2%
[4]; D0, of 8 isolates
  rrs-identified NAHL-degraders: Delftia: 7
  rrs-identified NAHL-degraders: Pseudomonas: 1
[4]; D28, 0.1 mL/L
  Log CFU/gram of root (fresh weight): 10.5 ± 10.1 Log CFU/gram of root (fresh we
  NAHL degraders (%): 6.7 ± 1.7 %
  NAHL producers (%): 5.6 ± 0.6%
  identified genera of NAHL-degrading bacteria: 3
[4]; D28, 0.1 mL/L, of 8 isolates
  rrs-identified NAHL-degraders: Agrobacterium: 4
  rrs-identified NAHL-degraders: Delftia: 2
  rrs-identified NAHL-degraders: Pseudomonas: 2
[5]
  activity of consortia towards C6-HSL (ranking): the most active
Bacterial consortia
  speed of C6-HSL signal inactivation versus Mannitol consortia: inactivated more rapidly
  speed of OC8-HSL signal inactivation versus Mannitol consortia: inactivated more rapidly
Young plants
  sensitivity of young plants: sensitive
[6]
  rrs-identified NAHL-degraders: Delftia: 9
  rrs-identified NAHL-degraders: Others: 2
  rrs-identified NAHL-degraders: Rhizobium: 1
  rrs-identified NAHL-degraders: Rhodococcus: 6
[7]
  biocontrol activity of the consortia against E. carotovora 6276: did not
[8]
  growth stimulation of NAHL-degrading bacteria after enrichment procedures: stimulated the growth of NAHL-degrading bacteria

## O=C1CCCO1 [GBL, gamma-butyrolactone]
[1]
  NAHL-producing bacteria among isolates of the consortia: 12 % of the tested strains

## CCCCC1CCC(=O)O1 (centres unmarked) [GOL, gamma-octalactone]
Soil bacterial consortia
  efficiency for obtaining NAHL-degrading consortia (ranking): most efficient
[8]
  growth stimulation of NAHL-degrading bacteria after enrichment procedures: stimulated the growth of NAHL-degrading bacteria

## CCCC1CCC(=O)O1 (centres unmarked) [HTN, 4-heptanolide]
[1]
  NAHL-inactivating bacteria recovered from consortia: recovered
  NAHL-producing bacteria among isolates of the consortia: none
[1]; HTN consortia, rrs sequence
  NAHL-degrading isolates belonging to the Rhodococcus genus: All seventeen
[5]
  activity of consortia towards C6-HSL (ranking): the most active
[9]; D14 and D42
  Rhodococcus isolates among NAHL-degrading isolates in treated batches: dominated
[9]; D 14 and D 42, 0.1 mL/L
  rrs-identified NAHL-degraders: Delftia: 1
  rrs-identified NAHL-degraders: Rhodococcus: 16
[9]; D 14 and D 42, 0.4 mL/L
  rrs-identified NAHL-degraders: Rhodococcus: 27
  rrs-identified NAHL-degraders: Sinorhizobium: 1
Bacterial consortia
  speed of C6-HSL signal inactivation versus Mannitol consortia: inactivated more rapidly
  speed of OC8-HSL signal inactivation versus Mannitol consortia: inactivated more rapidly
[10]; 0.1 and 0.4 mL/L, second treatment at day 28, D14, D28, D42
  ability to stimulate the growth of NAHL-degrading bacteria: confirmed the ability of HTN to stimulate the growth of NAHL-degrading bacteria
[10]; applied to hydroponic plant cultures (FIG. 9)
  percentage of NAHL-degrading bacteria among total cultivable bacteria: significant increase
Soil bacterial consortia
  efficiency for obtaining NAHL-degrading consortia (ranking): most efficient
[7]
  biocontrol activity of the consortia against E. carotovora 6276: biocontrol activity was observed; also recorded: showed biocontrol activity
[8]
  growth stimulation of NAHL-degrading bacteria after enrichment procedures: stimulated the growth of NAHL-degrading bacteria

## OC[C@@H](O)[C@@H](O)[C@H](O)[C@H](O)CO [Mannitol, mannitol, reference compound]
[1]
  NAHL-producing bacteria among isolates of the consortia: 10 % of the tested strains
[7]
  biocontrol activity of the consortia against E. carotovora 6276: did not

## OCC1CCCO1 (centres unmarked) [THA, tetrahydrofurfuryl alcohol]
[1]
  NAHL-inactivating bacteria recovered from consortia: recovered
  NAHL-producing bacteria among isolates of the consortia: 13 % of the tested strains
[5]
  activity of consortia towards C6-HSL (ranking): the most active

## C1CCOC1 [THF, tetrahydrofurane]
[1]
  NAHL-inactivating bacteria recovered from consortia: recovered
  NAHL-producing bacteria among isolates of the consortia: 41 % of the tested strains
